Data on four compounds can be found in article PMC12529149, “Chemical and Antiplasmodial Investigations on Carapa-Derived Gedunin Derivatives and Semisynthetic 6- and 7‑Substituted Gedunin Analogues from the Brazilian Amazon” (ACS Omega, 2025).

Values joined by “and” are separate entries in the source; they are usually repeats but may differ in a detail not shown here. Equal values may be shown once. Read-outs that look alike come from different tables or passages of the source.

One series deals with P. falciparum. Also noted: method as in literature (number not shown). Particulars: strain not stated; ref literature (number not shown); read-out: IC50, P. falciparum in vitro; cited from earlier work.
On the set-up of series [1]: method as in literature (number not shown). The following applies: low pH similar to mouse and human stomachs; ref literature (number not shown); cited from earlier work.
The next series relates to Plasmodium berghei. Particulars: cited from earlier work.
The test system of series [2] is P. falciparum FCR3 strain. Also noted: method as in literature (numbers not shown). The following applies: ref literature (numbers not shown); cited from earlier work.
Series [3] deals with MRC-5 human fibroblasts. As to the kind of experiment: Cytotoxicity/cell viability assay (Alamar blue). Format: cell-based. Particulars: read-out: fibroblasts IC50. Here is the method:
Medical Research Council cell strain 5 (MRC-5) human fetal fibroblasts were cultivated in Dulbecco′s modified Eagle’s medium (DMEM) supplemented with 10% bovine fetal serum and 1% antibiotic at 37 °C under an atmosphere of 5% CO2. Cell viability assessment relied on the Alamar blue method. […] Doxorubicin at concentrations of 0.312, 0.625, 1.25, 2.50, 5.00, 10.0, and 20.0 μM was used as a positive control for cell death. The negative control wells received DMSO (sample diluent) at 0.1%. In preparation for the assay, this method involved plating 0.5 × 10^4 cells/well on 96 well test plates and incubating for 24 h under the same conditions used for cell culture. This initial 24 h period was necessary for cell adhesion. The assay consisted of triplicate addition of diluted samples and controls to wells followed by 48 h of incubation. For quantification of viable cells, 10 μL of 0.4% Alamar blue (Sigma-Aldrich)–which works out to an in-well concentration of 0.02%–were added to each well 3 h before the end of the treatment. Alamar blue was allowed to react for 3 h followed by quantification of the optical density (OD) of each well at an excitation wavelength of 465 nm and emission wavelength of 540 nm using an ELISA plate reader (DTX-800, Beckman Coulter). Comparison of individual sample viability OD to that of controls (blanks) afforded the cell viability. Interpolation of the nonlinear curve using GraphPad Prism software permitted the calculation of estimates of the sample IC50 values compared to drug-free controls.
On the technique in general: The colour change of resazurin is a common sign of viable cells or microbes.

Series [4] concerns variety of P. falciparum strains. The following applies: read-out: IC50, in vitro growth, cited from earlier work.
The subject of a further series is P. falciparum D10 strain. Also noted: method as in literature (number not shown). Particulars: ref literature (number not shown); cited from earlier work.
Another series deals with P. falciparum K1 strain. Also noted: method as in earlier work. Particulars: ref previous reports incl. authors' earlier work (numbers not shown); cited from earlier work.
For series [5], the system named is human mammary epithelial cells (HME). Also noted: method as in literature (number not shown). The following applies: ref literature (number not shown); cited from earlier work.
The test system of series [6] is K1 strain of Plasmodium falciparum. Nature of the series: In vitro susceptibility assay (microtest), P. falciparum K1 growth inhibition. Format: cell-based. Here is the method: In vitro culture of the K1 strain of P. falciparum (MRA-159, MR4, ATCC, Manassas, Virginia, USA) proceeded following an established method with modifications. Briefly, this method involved the growth of parasites in human type A+ red blood cells and RPMI 1640 medium supplemented with 10% type A+ human plasma at 37 °C under an atmosphere of 5% O2, 5% CO2, and 90% N2.
As initial condition for the susceptibility assay, cultures were synchronized by treatment with 5% D-sorbitol, which provided young trophozoites (ring stages). Performance of the microtest followed a previously described procedure with modifications. Compounds were dissolved in DMSO with the aid of an ultrasound bath to provided stock solutions. […] These diluted samples were evaluated in duplicate in a 96-well test plate. A suspension of parasitized red blood cells (pRBCs) at 2% hematocrit and 1% parasitemia was added to each well. Microplate incubation proceeded for 48 h at 37 °C under the same atmosphere used for parasite culture in two independent experiments conducted on different days. Control wells contained chloroquine (0.003–2.5 μg/mL) and quinine (0.003–2.5 μg/mL). Six (6) control (blank) wells were prepared with pRBCs suspension. Six cosolvent control wells were prepared with 1% DMSO and pRBCs suspension. An average of these 12 controls defined drug-free (untreated) growth. After the incubation period, thin blood smears of the contents of each well were prepared on microscope slides. Optical microscopy was used to analyze the blood smears and establish the parasitemia of each well. Interpolation of the nonlinear curve using GraphPad Prism permitted the calculation of estimates of the sample concentrations able to inhibit 50% of parasite growth (IC50) compared to drug-free controls.

The test system of the next series is Hs578Bst cells. Also noted: method as in literature (number not shown). Particulars: immortalized, adult-derived normal cells; ref literature (number not shown); cited from earlier work.
The subject of a further series is P. falciparum Dd2 strain. The following applies: ref recent study on C. guianensis (number not shown); cited from earlier work.
In the next series the test system is P. falciparum W2 strain. Also noted: method as in literature (numbers not shown). Particulars: ref literature (numbers not shown), listed as gedunin; cited from earlier work.
Series [7] has as its system P. falciparum K1 strain vs MRC-5 human fibroblasts. As to the kind of experiment: Selectivity index, IC50 (human fibroblasts) ÷ IC50 (P. falciparum). The class given is cell-based, Plasmodium falciparum. The text has this:
Calculation of the selectivity index (SI) using the following formula afforded the relative toxicity of each sample to human fibroblasts and to P. falciparum blood stages: SI = IC50 (human fibroblasts) ÷ IC50 (P. falciparum).

Series [8] has as its system mouse mammary carcinoma (FM3A) cell cultures. Also noted: method as in literature (number not shown). Particulars: ref literature (number not shown); cited from earlier work.
Series [9] deals with MRC-5 human fibroblasts. Also noted: method as in authors' previous evaluation (number not shown). The following applies: ref authors' previous evaluation (number not shown); cited from earlier work.

As for “7-deacetyl-7α-methoxygedunin [reference compound]”, the 50% inhibitory concentration (IC50) in the series with P. falciparum is 1600 to 1700 nM. In [1], the “stability at low pH” value was “good stability at low pH”. For the same compound, the “suppression of P. berghei vs untreated controls” value in the series with Plasmodium berghei (oral, 50 mg/kg/day together with dillapiole 25 mg/kg/day (binary treatment), mice, ref literature (numbers not shown)) is 68–81%.
Take `CC(=O)O[C@@H]1C[C@H]2C(C)(C)C(=O)C=C[C@]2(C)[C@H]2CC[C@@]3(C)[C@H](c4ccoc4)OC(=O)[C@H]4O[C@]43[C@@]21C` (single isomer, unassigned) [compound 4, gedunin]: the IC50 was 2500 nM in series [2]; over 100000 nM in the series with MRC-5 human fibroblasts [3] (MRC5, MRC-5, tested at 50 μg/mL for 48 h); 20 to 3100 nM in series [4] (chloroquine-resistant (Dd2, K1, W2) and chloroquine-sensitive (3D7, D6, D10, FCR3, FCR3TC) strains, ref literature (numbers not shown)); 1660 ± 370 nM with P. falciparum D10 strain; 1500 nM with P. falciparum K1 strain; 1.4 µg/mL and 2.8 µM in series [6] (Plasmodium falciparum, K1, 48 h, K1 strain, 48 h, CI95 in brackets, read-out: P. falciparum IC50 (CI95)). Moreover, the IC50 in the series on P. falciparum Dd2 strain was 2800 ± 200 nM; with P. falciparum W2 strain, 1310 ± 420 nM. Also, in [5], the “toxicity to HME cells” value is given as “no appreciable toxicity”. Also, the “toxicity to Hs578Bst cells” value with Hs578Bst cells is on record as “no appreciable toxicity”. Further, in the series on Plasmodium berghei (oral or subcutaneous 50–90 mg/kg/day, P. berghei-infected mice, ref literature (numbers not shown)), the “suppression of parasite growth vs untreated controls” value was “failed to significantly suppress parasite growth”. Also, the “selectivity index (SI)” value in series [7] is on record as over 37. Also, the “toxicity to FM3A cells” value in series [8] was “toxic”.
As to `CC1(C)C(=O)C=C[C@]2(C)[C@H]3CC[C@@]4(C)[C@H](c5ccoc5)OC(=O)[C@H]5O[C@]54[C@]3(C)[C@H](O)C[C@@H]12` [compound 2, 7-deacetylgedunin], the IC50 in the series with MRC-5 human fibroblasts [3] (MRC5, 48 h) is over 110000 nM; in [4] (variety of strains (3D7, D6, D10, W2, INDO), ref several previous reports (numbers not shown)), 1300 to 5900 nM; in the series on P. falciparum K1 strain, 3100 nM; in series [6] (Plasmodium falciparum, K1, 48 h, read-out: P. falciparum IC50 (CI95), K1 strain, 48 h, CI95 in brackets) it was 5.9 µg/mL; in [6] (read-out: P. falciparum IC50 (CI95), K1 strain, 48 h, CI95 in brackets) it was 13000 nM. Moreover, the “stability at low pH” value in series [1] is on record as “react at low pH”. Further, in [7], the “selectivity index (SI)” value was over 8.5.
In the case of `CC(=O)O[C@H]1[C@@H](OC(C)=O)[C@]2(C)[C@H](CC[C@@]3(C)[C@H](c4ccoc4)OC(=O)[C@H]4O[C@@]423)[C@@]2(C)C=CC(=O)C(C)(C)[C@H]12` [compound 12, 6α-acetoxygedunin], the 50% inhibitory concentration (IC50) was 7000 nM in the series with P. falciparum K1 strain, over 110000 nM in the series with MRC-5 human fibroblasts [9] and 2100 ± 200 nM with P. falciparum Dd2 strain. The suppression of parasitemia with Plasmodium berghei (oral 50–100 mg/kg/day, P. berghei-infected mice, ref authors' earlier work (number not shown)) is 40–66%.

The term IC50 denotes the concentration needed to halve the response being measured.
